# ± gives the expanded uncertainty stated by the source.
# Experiment: osmotic coefficient (dimensionless); mn = molality of the nth substance listed, in mol/kg
# Conditions: 298.15 K, 100 kPa, Liquid, isopiestic method
osmotic coefficient (m1 = 0.6482),osmotic coefficient (m1 = 1.344),osmotic coefficient (m1 = 1.706),osmotic coefficient (m1 = 1.869),osmotic coefficient (m1 = 1.921),osmotic coefficient (m1 = 2.034),osmotic coefficient (m1 = 2.247),osmotic coefficient (m1 = 1.014),osmotic coefficient (m1 = 2.276),osmotic coefficient (m1 = 2.931),osmotic coefficient (m1 = 3.121),osmotic coefficient (m1 = 3.201),osmotic coefficient (m1 = 3.445),osmotic coefficient (m1 = 3.639),Structure (SMILES)
0.771 ± 0.013,0.742 ± 0.014,0.734 ± 0.014,0.731 ± 0.014,0.726 ± 0.014,0.729 ± 0.014,0.719 ± 0.014,,,,,,,,CCCCn1cc[n+](C)c1.[Br-] [1-butyl-3-methylimidazolium bromide] + O
,,,,,,,0.986 ± 0.01,0.876 ± 0.011,0.855 ± 0.011,0.875 ± 0.011,0.872 ± 0.011,0.861 ± 0.011,0.889 ± 0.011,N[C@@H](CO)C(=O)O [L-serine] + O

# Reference: the NIST ThermoML archive (doi:10.1016/j.jct.2014.11.014)
